We go through four compounds from patent US20100284984A1, “ADENOSINE AND ITS MIMETICS. MODULATORS, TRANSPORT INHIBITORS, AND RECEPTOR AGONISTS AS A THERAPEUTIC TOOL TO REPLACE OR IMPROVE THE EFFICACY OF DEEP BRAIN STIMULATION” (University of Rochester, priority 2007, published 2010).

“Also recorded” adds a separate entry of the source.

The target of assay [1] is T1, Ecto-5′-nucleotidase CD73 (Rattus norvegicus, UniProt P21588).
T1 sequence (P21588 29-551): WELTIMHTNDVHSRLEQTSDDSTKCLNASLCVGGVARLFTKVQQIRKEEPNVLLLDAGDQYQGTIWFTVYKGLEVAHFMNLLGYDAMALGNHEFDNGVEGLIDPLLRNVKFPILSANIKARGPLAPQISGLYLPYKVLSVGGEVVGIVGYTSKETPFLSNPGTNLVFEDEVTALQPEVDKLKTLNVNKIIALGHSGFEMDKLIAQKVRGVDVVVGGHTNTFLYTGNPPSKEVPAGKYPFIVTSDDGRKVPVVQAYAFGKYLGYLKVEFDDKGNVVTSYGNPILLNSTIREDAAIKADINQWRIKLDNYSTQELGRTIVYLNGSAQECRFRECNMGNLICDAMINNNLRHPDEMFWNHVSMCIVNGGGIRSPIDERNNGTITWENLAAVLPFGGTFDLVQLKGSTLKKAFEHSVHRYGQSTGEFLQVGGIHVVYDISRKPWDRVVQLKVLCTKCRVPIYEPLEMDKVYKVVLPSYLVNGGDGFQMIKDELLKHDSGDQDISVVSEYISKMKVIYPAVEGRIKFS
Conditions: Sato et al., rat hearts; cited from earlier work.

The target in assay [2] is Ecto-ATPase. Conditions: Drakulich et al.; cited from earlier work.
The test system of another assay is P2 receptors. Conditions: cited from earlier work.
The subject of the next assay is thalamic slices. In words: Extracellular adenosine by biosensor during HFS of thalamic slices. Conditions: 50 μM. The format is cell-based, mouse. The protocol: Thalamic slices (300 μm) from 14-18 day old mouse pups (FVB/NJ mice; Jackson Laboratory) were cut on a Vibratome (TPI) in an ice-cold cutting solution containing (in mM): 2.5 KCl, 1.25 NaH2PO4, 10 MgSO4, 5 CaCl2, 10 glucose, 26 NaHCO3, 230 sucrose and gassed with 5% CO2 and 95% O2. Slices were incubated for a minimum of 1 hr in a slice solution containing (in mM): 126 NaCl, 2.5 KCl, 1.25 NaH2PO4, 2 MgCl2, 2 CaCl2, 10 glucose, and 26 NaHCO3, pH 7.4, and gassed with 5% CO2 and 95% O2 at room temperature. The slices were transferred to a recording chamber (1.5 ml) perfused with aCSF at room temperature or 32° C. Whole-cell current clamp recordings were obtained using a 700B Multiclamp amplifier (Axon Instruments) (Jiang et al., “A Kainate Receptor Increases The Efficacy of Gabaergic Synapses,” Neuron 30:503-13 (2001); Tian et al., “An Astrocytic Basis of Epilepsy,” Nat Med 11:973-81 (2005), which are hereby incorporated by reference in their entirety). Concentric bipolar stimulating electrodes (FHC) were placed ˜100-400 μm ventromedial to the patched VL thalamic neuron. […] Adenosine measurements were detected using needle shaped electrode (Pt/Ir wire) biosensors (Sarissa Biomedical). […]

The next assay has as its target Rat Parotid Ecto-ATPase. As to conditions: Dowd et al.; cited from earlier work.
The target of assay [3] is Ecto-ATPase. Conditions: Crack et al.; cited from earlier work.
Assay [4] deals with thalamic neurons. Kind of assay: HFS-induced depression of eEPSPs in thalamic slices, pharmacology. The format is cell-based, mouse.
A further assay has as its target T2, adenosine deaminase (Homo sapiens, UniProt P00813).
T2 sequence (P00813 1-363): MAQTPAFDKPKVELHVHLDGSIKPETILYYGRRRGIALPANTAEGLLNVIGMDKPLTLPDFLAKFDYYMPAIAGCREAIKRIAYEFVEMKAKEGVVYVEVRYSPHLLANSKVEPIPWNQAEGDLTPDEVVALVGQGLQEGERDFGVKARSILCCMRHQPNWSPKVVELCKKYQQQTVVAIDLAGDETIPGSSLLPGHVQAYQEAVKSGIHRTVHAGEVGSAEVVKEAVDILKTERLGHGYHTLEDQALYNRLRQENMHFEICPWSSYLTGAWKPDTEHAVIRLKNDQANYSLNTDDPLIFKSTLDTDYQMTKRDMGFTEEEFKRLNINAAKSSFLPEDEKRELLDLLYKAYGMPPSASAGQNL
As to conditions: at 27° C.; cited from earlier work.

In assay [5] the test system is thalamic neurons. In words: Drug effect on evoked EPSPs (eEPSP) in thalamic slices, current clamp. The format is cell-based, mouse. As to conditions: DPCPX 100 nM. Here is the method:
Thalamic slices (300 μm) from 14-18 day old mouse pups (FVB/NJ mice; Jackson Laboratory) were cut on a Vibratome (TPI) in an ice-cold cutting solution containing (in mM): 2.5 KCl, 1.25 NaH2PO4, 10 MgSO4, 5 CaCl2, 10 glucose, 26 NaHCO3, 230 sucrose and gassed with 5% CO2 and 95% O2. Slices were incubated for a minimum of 1 hr in a slice solution containing (in mM): 126 NaCl, 2.5 KCl, 1.25 NaH2PO4, 2 MgCl2, 2 CaCl2, 10 glucose, and 26 NaHCO3, pH 7.4, and gassed with 5% CO2 and 95% O2 at room temperature. The slices were transferred to a recording chamber (1.5 ml) perfused with aCSF at room temperature or 32° C. Whole-cell current clamp recordings were obtained using a 700B Multiclamp amplifier (Axon Instruments) (Jiang et al., “A Kainate Receptor Increases The Efficacy of Gabaergic Synapses,” Neuron 30:503-13 (2001); Tian et al., “An Astrocytic Basis of Epilepsy,” Nat Med 11:973-81 (2005), which are hereby incorporated by reference in their entirety). Concentric bipolar stimulating electrodes (FHC) were placed ˜100-400 μm ventromedial to the patched VL thalamic neuron. Stimulation was delivered through a constant isolated current source (ISO-Flex stimulus isolator with a Master-8-vp stimulator; AMPI) and consisted of monophasic 60 μs square pulses of varying amplitude (15, 25, 50 μA) and frequency (25, 75, 125, 200 Hz). Based upon maximum current amplitude and the surface area of the electrode, it is estimated that the maximum charge density was in the range of ˜1-10 μC/cm^2. The artifacts of the HFS signal were blanked and staggered to allow continuous observation of the 2.5 Hz signal (Anderson et al., “Selective Attenuation of Afferent Synaptic Transmission as a Mechanism of Thalamic Deep Brain Stimulation-Induced Tremor Arrest,” J Neurosci 26:841-50 (2006), which is hereby incorporated by reference in its entirety). Adenosine measurements were detected using needle shaped electrode (Pt/Ir wire) biosensors (Sarissa Biomedical). Calibration was carried out at the beginning and end of each slice experiment in the bath above the slice. Measurements were obtained ˜100 μm from the stimulation electrode in the thalamic slice. […].
To further analyze the role of adenosine in HFS, the effect of perfusion with an aCSF containing 1-100 μM adenosine in thalamic slices was studied. […]. […] The AMPA receptor antagonist, CNQX could not be tested due to its direct effect on EPSCs (Wang et al., “Astrocytic Ca(2+) Signaling Evoked by Sensory Stimulation in Vivo,” Nat Neurosci 9:816-23 (2006), which is hereby incorporated by reference in its entirety) (FIG. 3G). […]. […]

For the next assay, the system named is harmaline-induced tremor. In words: DBS therapeutic window in harmaline-induced tremor. It counts as in vivo. Conditions: APV and CNQX 10 mg/kg each i.p.; DPCPX 4 mg/Kg i.p. The protocol: Harmaline was administed i.p. 20 min prior to DBS (20-30 mg/kg) (Wilms et al., “Animal Models of Tremor,” Mov Disord 14:557-71 (1999); Martin et al., “Harmaline-Induced Tremor as a Potential Preclinical Screening Method for Essential Tremor Medications,” Mov Disord 20:298-305 (2005), which are hereby incorporated by reference in their entirety). […] For electrode and microdialysis implantation, mice were anaesthetized with a mixture of Ketamine (60 mg/kg) and Xylazine (10 mg/kg) and placed into a stereotactic frame. The skull was exposed and concentric bipolar microelectrodes (SNE-100, KOPF) or microdialysis probes (Bioanalytical Systems, Inc.) were implanted into the ventrolateral thalamic nucleus at the following coordinates: AP: −1.4 mm; ML: ±0.9 mm; DV: −3.7 mm. The electrodes or microdialysis probes were attached to the skull with dental cement. […] Tremor was recorded by either EMG electrodes placed in the occipital muscles or by the Convuls-1 pressure transducer (Columbus Instruments) in awake freely moving animals. […]
. […] The minimal efficient current amplitude of DBS was determined by methodically changing the stimulation parameters (FIG. 4C). […]

Assay [6] has as its system thalamic neurons. Kind of assay: HFS-induced membrane depolarization of thalamic neurons. The format is cell-based, mouse. Conditions: thalamic slices during HFS.

For `COc1ccc(Cl)cc1C(=O)NCCc1ccc(S(=O)(=O)NC(=O)NC2CCCCC2)cc1` [giberclamide], in [1], the IC50 is 10.5 µM.
Consider `CCN(CC)c1ncnc2c1ncn2C1OC(COP(=O)(O)OP(=O)(O)C(Br)(Br)P(=O)(O)O)C(O)C1O` [ARL67156, 6-N,N-diethyl-D-beta, gamma-dibromomethyleneATP], for which, at Ecto-ATPase [2], the Ki was 0.255 µM. For the same compound, in the assay on P2 receptors, the “effect on P2 receptors” value is “lack of or only has weak effect”. Also, the “HFS-induced increase in extracellular adenosine” value was “reduction in the HFS-induced adenosine increase” in the assay on thalamic slices and “reduced adenosine increases during HFS; also recorded: did not completely block the rise in adenosine” in the assay with thalamic slices (listed as ARL). Further, the IC50 on Rat Parotid Ecto-ATPase was 120 µM; at Ecto-ATPase [3], 4.6 µM. The “effect on HFS-induced depression of eEPSPs (FIG. 3G)” value with thalamic neurons [4] (50 μM, HFS 250 μA, 100 μs, 5 sec, 20° C.) is recorded as “attenuated HFS-induced depression of eEPSPs”.
Turning to `CC(=O)Nc1ccc(O)cc1` [acetaminophen], the Ki at adenosine deaminase was 126 µM.
In the case of `CCCn1c(=O)c2[nH]c(C3CCCC3)nc2n(CCC)c1=O` [DPCPX], the “effect on adenosine-induced reduction of eEPSPs” value in the assay with thalamic neurons [5] is reported as “blocked the effect of adenosine; also recorded: reversibly attenuated the reduction”. Besides, in the assay with harmaline-induced tremor, the “effect on the ability of DBS to reduce harmaline-induced tremor” value is on record as “involuntary movements rather than tremor reduction” and the “threshold for DBS-induced involuntary movements” value is recorded as “developed involuntary movements at stimulation intensities below the therapeutic range”. Further, the “effect on HFS-induced depolarization” value in the assay on thalamic neurons [6] is recorded as “no effect”. In addition, the “time for EPSPs to recover to pre-stimulation values after HFS” value in the assay with thalamic neurons [4] (300 nM, directly stimulated pathways) is 12.4 ± 6.1 s. The “effect on HFS-induced depression of eEPSPs, heterosynaptic pathways” value with thalamic neurons [4] (HFS 125 Hz, 250 μA, 10 sec, 32° C., separate electrodes) is “attenuated the depression of eEPSPs; also recorded: potently attenuated the HFS-induced suppression of eEPSPs”. For the same compound, the “effect on HFS-induced depression of eEPSPs, homosynaptic (directly stimulated) pathways” value in the assay on thalamic neurons [4] (same electrode for HFS and eEPSPs) is given as “reduced depression of eEPSPs after, but not during, HFS; also recorded: attenuated this reduction following, but not during HFS”.

One may read the IC50 as the concentration at which inhibition is half-maximal. As usually defined, the Ki is a measure of affinity in units of concentration, obtained from inhibition or displacement.
